Test results taken from patent EP0562731A1, “Substituted pyridinesulfonamide compounds or their salts, process for preparing the same, and herbicides containing the same” (ISHIHARA SANGYO KAISHA, Ltd., priority 1992, dated 1993).

Legend:
Type in all cases: in vivo
cotton (Gossypium) = assay: Test Example 1: foliar application pot test, visual growth control rating; conditions: wettable powder, observed 20 to 31 days after application
Text: (§1) 1/1,500 are [are (a) = 100 m²] pots were filled with upland farming soil, which in the pots was then sown with a variety of plants. The plants grown will be enumerated below.
(§2) When each plant reached a given growth stage (a 1.2- to 3.0-leaf stage for rice, primary leaf to a 0.7-leaf stage for soybean, 2.1- to 3.6-leaf stage for corn, cotyledon to 0.7-leaf stage for cotton, 2.0- to 3.0-leaf stage for wheat, 0.3- to 3.4-leaf stage for cocklebur, 0.3- to 1.6-leaf stage for morning glory, 0.1- to 1.3-leaf stage for prickly sida, 0.1- to 1.3-leaf stage for slender amaranth, 1.5- to 3.2-leaf stage for barnyard glass, and 1.2- to 3.0-leaf stage for large crabgrass), a predetermined amount of the herbicide of the present invention in the form of a wettable powder, weighed out, diluted with 5 ℓ/a of water and admixed with 0.2 or 0.1 vol%, based on the resulting composition, of an agricultural spreader, was foliarly applied to the plant with a small spray gun. The progress of growth of the plant was visually observed 20 to 31 days after the foliar application to evaluate the degree of growth control according to 10 ratings (1: the same as in an untreated plot - 10: perfect growth control).

[1] = system: large crabgrass (Digitaria adscendens); assay: as above; parameters: key: 1: the same as in an untreated plot; 10: perfect growth control; conditions: wettable powder, observed 20 to 31 days after application
Text: as §1, §2

[2] = system: morning glory (Ipomoea purpurea); assay: as above; parameters: key: 1: the same as in an untreated plot; 10: perfect growth control; conditions: wettable powder, observed 20 to 31 days after application
Text: as §1, §2

[3] = system: barnyard grass (Echinochloa crus-galli); assay: as above; parameters: key: 1: the same as in an untreated plot; 10: perfect growth control; conditions: wettable powder, observed 20 to 31 days after application
Text: as §1, §2

rice (Oryza sativa) = assay: as above; parameters: key: 1: the same as in an untreated plot; 10: perfect growth control; conditions: wettable powder, observed 20 to 31 days after application
Text: as §1, §2

[4] = system: cocklebur (Xanthium strumarium); assay: as above; parameters: key: 1: the same as in an untreated plot; 10: perfect growth control; conditions: wettable powder, observed 20 to 31 days after application
Text: as §1, §2

[5] = system: slender amaranth (Amaranthus viridis); assay: as above; parameters: key: 1: the same as in an untreated plot; 10: perfect growth control; conditions: wettable powder, observed 20 to 31 days after application
Text: as §1, §2

[6] = system: prickly sida (Sida spinosa); assay: as above; parameters: key: 1: the same as in an untreated plot; 10: perfect growth control; conditions: 1.25 g/a active ingredient, wettable powder, observed 20 to 31 days after application
Text: as §1, §2

corn (Zea mays) = assay: as above; parameters: key: 1: the same as in an untreated plot; 10: perfect growth control; conditions: wettable powder, observed 20 to 31 days after application
Text: as §1, §2

soybean (Glycine max) = assay: as above; parameters: key: 1: the same as in an untreated plot; 10: perfect growth control; conditions: 1.25 g/a active ingredient, wettable powder, observed 20 to 31 days after application
Text: as §1, §2

velvet leaf [7] = assay: Test Example 3: foliar application pot test, percent growth inhibition by fresh weight of aerial part and Colby's value; conditions: Abutilon theophrasti, velvet leaf 1-leaf stage, 20th day from foliar application, fresh weight of aerial part, read-out: Percent Growth Inhibition (%) Found; for inhibition at 63 g/ha: 0.63 g/a; for inhibition at 16 g/ha: 0.16 g/a
Text: (§3) 1/10000-are pot was filled with upland farming soil and sown with velvet leaf. When the plant reached the 1-leaf stage, a predetermined amount of the herbicide of the present invention diluted with 5 ℓ of water per are and admixed with 0.1 vol%, based on the aqueous solution, of an agricultural spreader ("Kusa Rino") was foliarly applied to the plant with a small spray gun. On the 20th day from the application, the aerial part of the plant was weighed to obtain a percent growth inhibition according to Equation (1) (found value) and a Colby's value (calculated value) according to Equation (2) (see Weed, Vol. 15, pp. 20-22 (1967)). Percent Growth Inhibition (%) = (1 -(Fresh Weight of Aerial Part of Plant in Treated Plot)/(Fresh Weight of Aerial Part of Plant in Untreated Plot)) x 100 [formula] Colby's Value (E) = α + β -(α x β)/(100) [formula]
(§4) Wherein α represents a percent growth inhibition when treated with an amount a (g/a) of herbicide A; β represents a percent growth inhibition when treated with amount b (g/a) of herbicide B; and E represents an expected percent growth inhibition when treated with a of herbicide A and b of herbicide B.

[8] = system: velvet leaf (Abutilon theophrasti); assay: Test Example 2: foliar application pot test, visual herbicidal effect rating, single and combined herbicides; conditions: velvet leaf 1.2-leaf stage, 25 days after foliar application; further: ranges in brackets are in %
Text: 1/10000-are pot was filled with upland farming soil and sown with velvet leaf (Abutilon theophrasti). When the plant reached the 1.2-leaf stage, a predetermined amount of the herbicide of the present invention diluted with 5 ℓ of water per are and admixed with 0.1 vol%, based on the aqueous solution, of an agricultural spreader ("Kusa Rino", produced by Nihon Nohyaku Co., Ltd.) was foliarly applied to the plant with a small spray gun. The herbicidal effect was visually observed 25 days after the foliar application and evaluated according to the rating system shown below.

[9] = system: large crabgrass (Digitaria adscendens); assay: Test Example 5: foliar application pot test, percent growth inhibition by fresh weight of aerial part and Colby's value; conditions: read-out: Percent Growth Inhibition (%) Found
Text: as §3, §4
(§5) 1/10000-are pot was filled with upland farming soil and sown with large crabgrass (Digitaria adscendens). When the plant reached the 2-leaf stage, a predetermined amount of the herbicide of the present invention diluted with 5 ℓ of water per are and admixed with 0.1 vol%, based on the aqueous solution, of an agricultural spreader ("Kusa Rino") was foliarly applied to the plant with a small spray gun. On the 20th day from the application, the aerial part of the plant was weighed to obtain a percent growth inhibition and a Colby's value in the same manner as in Test Example 3.

velvet leaf [10] = assay: Test Example 4: foliar application pot test, percent growth inhibition by fresh weight of aerial part and Colby's value; conditions: Abutilon theophrasti, read-out: Percent Growth Inhibition (%) Found
Text: as §3, §4
as §5, with “velvet leaf.” for “large crabgrass (Digitaria adscendens).”, “1-leaf” for “2-leaf”

Row | Structure (SMILES) | degree of growth control, GO (cotton (Gossypium); 1.25 g/a active ingredient) | degree of growth control, DI ([1]; 1.25 g/a active ingredient) | degree of growth control, IP ([2]; 1.25 g/a active ingredient) | degree of growth control, EC ([3]; 1.25 g/a active ingredient) | degree of growth control, OR (rice (Oryza sativa); 1.25 g/a active ingredient) | degree of growth control, XA ([4]; 1.25 g/a active ingredient) | degree of growth control, AM ([5]; 1.25 g/a active ingredient) | degree of growth control, ZE (corn (Zea mays); 1.25 g/a active ingredient) | inhibition at 63 g/ha (velvet leaf [7]) [%] | inhibition at 16 g/ha (velvet leaf [7]) [%] | degree of growth control, IP ([2]; 0.31 g/a active ingredient) | degree of growth control, EC ([3]; 0.31 g/a active ingredient) | degree of growth control, ZE (corn (Zea mays); 0.31 g/a active ingredient) | also measured
1 | CCN(c1cccc(S(=O)(=O)NC(=O)Nc2nc(C)nc(OC)n2)n1)S(=O)(=O)CC(F)(F)F [compound 79] | 6 | 3 | 7 | 1 | 1 | 6 | 6 | 1 | – | – | – | – | – | degree of growth control, SI [6]: 3; degree of growth control, GL (soybean (Glycine max)): 6
2 | CC(C)N1C(=O)c2ccccc2NS1(=O)=O [Bentazon, 3-(1-methylethyl)-(1H)-2,1,3-benzothiadiazin-4(3H)-one-2,2-dioxide, reference compound] | – | – | – | – | – | – | – | – | 17 | – | – | – | – | inhibition at 125 g/ha (velvet leaf [7]; 1.25 g/a): 69%
3 | CSc1nnc(C(C)(C)C)c(=O)n1N [Metribuzin, 4-amino-6-(1,1-dimethylethyl)-3-(methylthio)-1,2,4-triazin-5(4H)-one, reference compound] | – | – | – | – | – | – | – | – | – | 89 | – | – | – | –
4 | CCC(Cl)S(=O)(=O)N(CC)c1cccc(S(=O)(=O)NC(=O)Nc2nc(C)nc(OC)n2)n1 (racemic) [compound 88] | 6 | – | 10 | 10 | – | 10 | – | 10 | – | – | 10 | 10 | 10 | degree of growth control, GO (cotton (Gossypium); 0.31 g/a active ingredient): 6; degree of growth control, XA ([4]; 0.31 g/a active ingredient): 10
5 | CCN(c1cccc(S(=O)(=O)NC(=O)Nc2nc(C)nc(OC)n2)n1)S(=O)(=O)C(C)Cl (racemic) [Compound No. 54, 6-[[N-(1-chloroethylsulfonyl)-N-ethyl]amino]-N-[[(4-methoxy-6-methyltriazin-2-yl)amino]carbonyl]-2-pyridinesulfonamide] | – | 3 | 9 | 10 | 9 | – | 9 | 10 | 86 | 19 | 9 | 10 | 10 | Rating ([8]; 0.16 g/a): 3 (30-39); Rating ([8]; 0.31 g/a): 5 (50-59); Rating ([8]; 0.63 g/a): 6 (60-69); Rating ([8]; 1.25 g/a): 8 (80-89); inhibition at 16 g/ha ([9]; 0.16 g/a, foliar application, 20th day, large crabgrass): 19%; inhibition at 31 g/ha ([9]; 0.31 g/a, foliar application, 20th day, large crabgrass): 24%; inhibition at 63 g/ha ([9]; 0.63 g/a, foliar application, 20th day, large crabgrass): 77%; inhibition at 16 g/ha (velvet leaf [10]; 0.16 g/a, velvet leaf 1-leaf stage, 20th day from foliar application, fresh weight of aerial part): 12%; inhibition at 31 g/ha (velvet leaf [10]; 0.31 g/a, velvet leaf 1-leaf stage, 20th day from foliar application, fresh weight of aerial part): 32%; inhibition at 63 g/ha (velvet leaf [10]; 0.63 g/a, velvet leaf 1-leaf stage, 20th day from foliar application, fresh weight of aerial part): 66%; inhibition at 31 g/ha (velvet leaf [7]; 0.31 g/a): 52%; degree of growth control, DI ([1]; 0.31 g/a active ingredient): 3; degree of growth control, OR (rice (Oryza sativa); 0.31 g/a active ingredient): 9; degree of growth control, AM ([5]; 0.31 g/a active ingredient): 9
6 | CON(C)C(=O)Nc1ccc(Cl)c(Cl)c1 [Linuron, 3-(3,4-dichlorophenyl)-1-methoxy-1-methylurea, reference compound] | – | – | – | – | – | – | – | – | – | – | – | – | – | inhibition at 12.5 g/ha ([9]; foliar): 23%; inhibition at 25 g/ha ([9]; foliar): 68%; inhibition at 50 g/ha ([9]; foliar): 79%; inhibition at 12.5 g/ha (velvet leaf [10]; foliar): 35%; inhibition at 25 g/ha (velvet leaf [10]; foliar): 61%
